Series [1] deals with sperm. The experiment in a line: Split quality, dead quenching dye combined with split enhancing dye (Example 7). Format: cell-based, Jersey bull. Here is the method:
A single Jersey bull was collected at an initial sperm concentration 1810×10^6 sperm/ml in a volume of 3.9 ml. […] Samples were split into two equal aliquots and in one of each pair of samples, a stock solution of phenol red was added to make a final phenol red concentration of 620 μM. […] At each concentration, one control was compared to the addition of phenol red as a split enhancing dye at a concentration of 620 μM. Sorting was performed on a MoFlo SX (Beckman Coulter, USA) in substantially the same manner described in Example 5. After calibration, screen shots of sorting histograms were taken and split quality was measured by the peak to valley ration in the same way described in Example 5. The resulting data is found in Table 15.

Series [2] deals with sperm. The experiment in a line: Post thaw motility and percent intact acrosomes of sex sorted, frozen-thawed sperm (Example 1). Format: cell-based, bovine. The conditions noted are these: average over all bulls; for Motility Average 3 Hour: post thaw 3 hours, treatments as E1. Here is the method: Sperm was collected from 10 different bulls on a routine collection schedule using an artificial vagina over the course of 4 days. The 10 bulls included both Jersey bulls and Holstein bulls. All ejaculates contained greater than 60% progressive motility and greater than 70% morphological normal sperm. Antibiotics were added within 15 minutes of collection.
Red food dye treatment 40%—A reduced volume of red food dye No. 40 control was established. Sperm was diluted to 160×10^6 sperm per ml in a modified TALP buffer, as described in Table 1, at a pH of 7.4. Samples collected from Jersey bulls were incubated with 16 μl of Hoechst 33342 per 2 ml of sample for between 45 and 60 minutes at 34° C., while samples collected from Holstein bulls were incubated 17 μl of Hoechst 33342 per 2 ml of sample for between 45 and 60 minutes at 34° C. After incubation an equal volume of a second modified TALP was added reducing the concentration to 80×10^6. The second modified TALP includes the components described in Table 1 with the addition of 4% egg yolk, 40 μM red food dye No. 40 (20 g/L) and the pH dropped to 5.5 with HCl.
Yellow food dye was included in a second group at an equal concentration. Sperm was diluted to 160×10^6 sperm per ml in a modified TALP buffer, as described in Table 1, at a pH of 7.4. Samples collected from Jersey bulls were incubated with 14 μl of Hoechst 33342 per 2 ml of sample for between 45 and 60 minutes at 34° C., while sample collected from Holstein bulls were incubated 15 μl of Hoechst 33342 per 2 ml of sample for between 45 and 60 minutes at 34° C. After incubation an equal volume of a second modified TALP was added reducing the concentration to 80×10^6. The second modified TALP includes the components described in Table 1 with the addition 4% egg yolk, […] yellow food dye No. 6 and a pH dropped to 5.5 with HCl. […]
Straws were thawed the following day for motility measurements at 0 hour and 3 hours. Percent intact acrosomes were measured as well, and the overall averages over all bulls on each day are illustrated in Table 3. […]

In series [3] the test system is sperm. In words: Post thaw DNA fragmentation Elk (Example 3). Format: cell-based. Here is the method:
Each of deer and elk were collected in the Tris-egg yolk catch fluid described as a catch media in Example 1, and shipped for sorting.
A portion of each of the deer and the elk were stained by the red food dye No. 40 treatment 40% with 16 μL Hoechst 33342 and the yellow food dye No. 6 treatment with 14 μL Hoechst 33342 as described in Example 1.
Samples were each bulk sorted with the same machine and parameters described in Example 1. Both sorted X and sorted Y sperm were collected into a single catch. The sorted samples were then frozen like those described in Example 1.
Frozen thawed samples were then tested for post thaw motilities and post thaw DNA fragmentation. Post thaw motilities were slightly higher in Elk sorted with a yellow quencher, while a more significant difference existed in progressive motility. In Table 10, post thaw DNA fragmentation in Elk can be seen at about double after 48 hours when red food dye No. 40 is compared to yellow food dye No. 6 as a dead quencher.

The structures appear in SMILES notation.

Regarding `O=S1(=O)OC(c2ccc(O)cc2)(c2ccc(O)cc2)c2ccccc21` [Phenol Red, phenolsulfonphthalein], the “peak quality of combination versus dead quencher alone” value in the series with sperm [1] (phenol red 620 μM with yellow food dye No. 6 62 μM, each sperm concentration tested) is listed as “gives better peak quality”.
`COc1cc(S(=O)(=O)O)c(C)cc1N=Nc1c(O)ccc2cc(S(=O)(=O)O)ccc12` [Red 40, 6-hydroxy-5-[(2-methoxy-5-methyl-4-sulfophenyl)azo]-2-naphthalenesulfonic acid, reference compound]: the “Motility Average 3 Hour” value in the series with sperm [2] is listed as 47.0%. Besides, in the series with sperm [3], the “post thaw DNA fragmentation compared to yellow food dye No. 6” value is given as “about double”. In addition, the DNA fragmentation Post Sort in the series with sperm [3] (elk, 0 h) stood at 0%; in the series on sperm [3] (elk, 24 h), 0.3%; in the series with sperm [3] (elk, 48 h), 0.7%. For the same molecule, the DNA fragmentation Pre-sort is 2.3% in the series on sperm [3] (elk, 0 h); 5.6% in the series on sperm [3] (elk, 24 h); 6% in the series on sperm [3] (elk, 48 h).
Take `O=S(=O)([O-])c1ccc(N=Nc2c(O)ccc3cc(S(=O)(=O)[O-])ccc23)cc1.[Na+].[Na+]` [Yellow 6, Disodium 6-hydroxy-5[(4-sulfophenyl)azo]-2-naphthalenesulfononate]: the “Motility Average 0 Hour” value with sperm [2] (post thaw 0 hour, Red = red food dye No. 40 treatment 40% (16-17 μl Hoechst 33342/2 ml), Yellow = yellow food dye No. 6 (14-15 μl)) was 57.7%. In addition, in the series on sperm [2], the “Motility Average 3 Hour” value is recorded as 49.0%. Also, the DNA fragmentation Post Sort in the series with sperm [3] (post thaw 0 HR) was 0%; with sperm [3] (post thaw 24 HR), 0%; in the series on sperm [3] (post thaw 48 HR) it was 0.3%. Also, the figures for the DNA fragmentation Pre-sort in the series on sperm [3] (post thaw 0 HR), with sperm [3] (post thaw 24 HR) and in the series on sperm [3] (post thaw 48 HR) were 2.3%, 3.3% and 3.7%, respectively. In addition, in the series on sperm [1] (150 million cells per mL, Yellow 6 62 μM, Phenol Red 0 μM), the “Height of Peak Divided by Height of Valley” value came out at 1.30.
